Source: patent publication US20220370416A1, “COMPOUNDS AND METHODS FOR TARGETED DEGRADATION OF KRAS” (Arvinas Operations, Inc., priority 2020, published 2022)

Columns and labels:
KRAS^G12C = KRAS^G12C (Homo sapiens, UniProt P01116, G12C); experiment: KRAS^G12C degradation in a panel of 5 KRAS^G12C cancer cell lines (immunoblot); format: cell-based; set-up: MRTX849-VHL bifunctional compounds engage and degrade endogenous KRAS^G12C in NCI-H2030 cells; endogenous in cells; host or cells: NCI-H2030, NCI-H358, MIA PaCa-2, SW1573, NCI-H23; conditions: read-out: DMax values across cell lines
Chain of KRAS^G12C (P01116 1-188 isoform P01116-2 G12C): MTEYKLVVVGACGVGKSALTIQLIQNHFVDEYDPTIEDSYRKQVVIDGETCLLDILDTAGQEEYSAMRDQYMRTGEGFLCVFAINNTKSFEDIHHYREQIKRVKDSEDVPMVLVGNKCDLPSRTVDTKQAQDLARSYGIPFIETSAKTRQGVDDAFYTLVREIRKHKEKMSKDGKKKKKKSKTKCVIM
Method: NCI-H2030 (CRL-5914), MIA PaCa-2 (CRL-1420), NCI-H23 (CRL-5800), NCI-H358 (CRL-5807), and HCT-116 (CCL-247) cells were obtained from ATCC, expanded immediately, and frozen down. Vials were thawed and used within 20 passages. SW1573 cells were a gift from Arvinas and were handled in the same manner. NCI-H2030, NCI-H23, and NCI-H358 were cultured in RPMI (ATCC30-2001) supplemented with 10% FBS (Biological Industries; cat. no. S1480) and 1% Penicillin-Streptomycin (ThermoFisher; cat. no. 15140122). HCT-116 cells were maintained in high glucose DMEM (ThermoFisher; cat. no. 11965084) supplemented as above. […]
(§1) Cell lysates were clarified at 21000×g for 15 mins at 4° C. Protein levels were quantified using a 50:1 mixture of bicinchoninic acid solution (Millipore Sigma; cat. no. B9643) and 4% (w/v) copper(II) sulfate solution (Millipore Sigma; cat. no. C2284) incubated at 37° C. for 30 mins. Absorbance values at 560 nm were read on an EnVision 2101 Multilabel Reader (PerkinElmer). […]
(§2) Band intensities were quantified using BioRad's Image Lab Software. Total KRAS levels were examined by quantifying levels of both conjugated KRAS^G12C and unbound KRAS (wt or mutant) using an analysis box that spanned the two bands. This same sized box was used to quantify unbound KRAS in DMSO treated samples to account for background, except for LC-2 Epimer in FIGS. 6A and 6B. […]

pErk = conditions: NCI-H2030, 24 hour dose response
Method: The ability of LC-2 to modulate Erk signaling was investigated in NCI-H2030 and NCI-H23 cells during a 24 hour dose response.
NCI-H2030, NCI-H23, and NCI-H358 were cultured in RPMI (ATCC30-2001) supplemented with 10% FBS (Biological Industries; cat. no. S1480) and 1% Penicillin-Streptomycin (ThermoFisher; cat. no. 15140122). HCT-116 cells were maintained in high glucose DMEM (ThermoFisher; cat. no. 11965084) supplemented as above. […] DPBS (ThermoFisher; cat. no. 14190250) was used to wash cells and 0.25% Trypsin-EDTA (ThermoFisher; cat. no. 252000-056) was used to detach cells for passaging.
Cell lysates were clarified at 21000×g for 15 mins at 4° C. Protein levels were quantified using a 50:1 mixture of bicinchoninic acid solution (Millipore Sigma; cat. no. B9643) and 4% (w/v) copper(II) sulfate solution (Millipore Sigma; cat. no. C2284) incubated at 37° C. for 30 mins. Absorbance values at 560 nm were read on an EnVision 2101 Multilabel Reader (PerkinElmer). Proteins were separated using 26 well Criterion TGX precast 4-15% (cat. no. 5671085) or 8-16% (cat. no. 5671105) gradient midi gels. […]
Band intensities were quantified using BioRad's Image Lab Software. […] Data was analyzed by computing one-way ANOVAs or two-way ANOVAs (for grouped data) using multiple comparisons in which the mean of DMSO was compared to all treatment means using GraphPad Prism 7. […]

KRAS^G12D = biological target: T1, KRAS^G12D (Homo sapiens, UniProt P01116, G13D); experiment: KRAS^G12D degradation in HCT116 cells (specificity); format: cell-based; conditions: HCT116 cells (FIG. 3B)
T1 construct: KRAS degradation was examined in HCT 116 cells, which harbor a heterozygous KRAS^G13D mutation; endogenous in cells; host or cells: HCT116
T1 sequence (P01116 1-185 isoform P01116-2 G13D): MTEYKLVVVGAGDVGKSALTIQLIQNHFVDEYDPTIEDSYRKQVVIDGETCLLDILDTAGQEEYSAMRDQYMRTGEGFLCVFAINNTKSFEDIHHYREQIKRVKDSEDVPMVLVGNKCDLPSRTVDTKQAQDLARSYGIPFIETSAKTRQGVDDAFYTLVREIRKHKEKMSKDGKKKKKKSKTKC

KRAS^G13D = biological target: T2, KRAS^G13D (Homo sapiens, UniProt P01116, G13D); experiment: KRAS degradation by immunoblot in HCT 116 cells (specificity); format: cell-based; conditions: up to 10 μM
T2 construct: endogenous in cells; host or cells: HCT116
T2 sequence (P01116 1-188 isoform P01116-2 G13D): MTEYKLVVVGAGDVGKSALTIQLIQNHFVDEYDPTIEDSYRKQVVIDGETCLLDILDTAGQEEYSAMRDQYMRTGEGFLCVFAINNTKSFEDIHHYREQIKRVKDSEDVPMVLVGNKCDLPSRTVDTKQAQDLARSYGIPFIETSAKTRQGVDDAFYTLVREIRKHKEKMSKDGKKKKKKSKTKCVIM
Source text: MRTX is known to be selective for mutant KRAS^G12C over other KRAS mutants (Hallin et al. 2020). To explore the specificity of LC-2, KRAS degradation was examined in HCT 116 cells, which harbor a heterozygous KRAS^G13D mutation.
NCI-H2030 (CRL-5914), MIA PaCa-2 (CRL-1420), NCI-H23 (CRL-5800), NCI-H358 (CRL-5807), and HCT-116 (CCL-247) cells were obtained from ATCC, expanded immediately, and frozen down. Vials were thawed and used within 20 passages. SW1573 cells were a gift from Arvinas and were handled in the same manner. […]
as §1, §2

C=C(F)C(=O)N1CCN(c2nc(OC[C@@H]3CCCN3CCCOCCC(=O)N[C@H](C(=O)N3C[C@H](O)C[C@H]3C(=O)NCc3ccc(-c4scnc4C)cc3)C(C)(C)C)nc3c2CCN(c2cccc4cccc(Cl)c24)C3)C[C@@H]1CC#N [LC-2, (2S,4R)-1-((S)-2-(3-(3-((S)-2-(((7-(8-chloronaphthalen-1-yl)-4-((S)-3-(cyanomethyl)-4-(2-fluoroacryloyl)piperazin-1-yl)-5,6,7,8-tetrahydropyrido[3,4-d]pyrimidin-2-yl)oxy)methyl)pyrrolidin-1-yl)propoxy)propanamido)-3,3-dimethylbutanoyl)-4-hydroxy-N-(4-(4-methylthiazol-5-yl)benzyl)pyrrolidine-2-carboxamide]
Dmax (KRAS^G12C): 75 to 90%
pErk signaling (pErk): dose-dependent decrease in signaling
total Erk levels (pErk): elevated in a dose-dependent manner
degradation of KRAS^G12D (KRAS^G12D): does not degrade KRAS^G12D
engagement or degradation of KRAS^G13D (KRAS^G13D): No engagement or degradation
